Laboratory results: ChEMBL document CHEMBL1144335, “7alpha,11beta-Dimethyl-19-nortestosterone: a potent and selective androgen response modulator with prostate-sparing properties” (Bioorg Med Chem Lett, 2005)

Columns and labels:
[1] = target: T1, Androgen receptor (Rattus norvegicus) (UniProt P15207); assay: Relative binding affinity for rat androgen receptor compared to dihydrotestosterone (100) (n=4)
T1 sequence (whole entry): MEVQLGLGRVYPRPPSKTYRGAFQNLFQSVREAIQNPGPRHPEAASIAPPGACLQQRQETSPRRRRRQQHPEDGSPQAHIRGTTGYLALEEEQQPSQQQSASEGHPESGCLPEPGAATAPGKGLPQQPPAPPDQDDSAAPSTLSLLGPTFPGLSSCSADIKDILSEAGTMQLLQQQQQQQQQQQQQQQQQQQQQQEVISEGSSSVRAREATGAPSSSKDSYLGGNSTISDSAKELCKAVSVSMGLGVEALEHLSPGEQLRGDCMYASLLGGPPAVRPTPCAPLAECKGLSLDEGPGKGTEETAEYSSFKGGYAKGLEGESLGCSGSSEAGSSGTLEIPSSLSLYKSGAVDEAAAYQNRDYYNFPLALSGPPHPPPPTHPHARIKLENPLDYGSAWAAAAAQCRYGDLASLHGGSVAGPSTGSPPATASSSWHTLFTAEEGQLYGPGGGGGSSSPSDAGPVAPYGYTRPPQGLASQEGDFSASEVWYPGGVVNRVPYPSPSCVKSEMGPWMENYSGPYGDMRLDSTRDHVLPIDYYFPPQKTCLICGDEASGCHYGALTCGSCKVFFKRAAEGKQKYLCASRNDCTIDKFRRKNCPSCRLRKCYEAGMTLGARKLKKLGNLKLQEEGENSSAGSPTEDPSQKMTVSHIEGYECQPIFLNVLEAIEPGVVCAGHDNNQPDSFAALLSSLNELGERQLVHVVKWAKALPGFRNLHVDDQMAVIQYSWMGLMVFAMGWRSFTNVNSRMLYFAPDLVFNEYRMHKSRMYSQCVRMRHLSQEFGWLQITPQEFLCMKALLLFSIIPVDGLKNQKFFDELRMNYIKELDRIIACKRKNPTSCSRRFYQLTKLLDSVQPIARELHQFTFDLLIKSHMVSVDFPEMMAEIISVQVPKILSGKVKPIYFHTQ

[2] = target: Estrogen receptor (Rattus norvegicus) (UniProt P06211+Q62986); assay: Binding affinity for estrogen receptor in rat (n=3)

Row | Compound | Binding affinity [1] | Binding affinity [2]
1 | C[C@H]1C[C@@]2(C)C(CC[C@@H]2O)C2C1C1CCC(=O)C=C1C[C@@H]2C (stereo partly drawn) | 22 | 
2 | C[C@@H]1CC2=CC(=O)CCC2C2C1C1CC[C@H](O)[C@@]1(C)C[C@@H]2C (stereo partly drawn) | 194 | 0.6
